Consider 5 compounds from patent US6479233B1, “Electrogenerated chemiluminescence labels for analysis and/or referencing” (IGEN International, Inc., priority 1994, dated 2002).

Molecules are shown by their SMILES. Where two headings read alike, the source gives them in different places.

Series [1] can be described thus: ECL spectra (CCD camera and spectrometer). It is filed as physicochemical. On the set-up: wavelength centered emission: unit not given here. The settings on record: for ECL maximum: pH 8.5 sodium phosphate buffer. As to the method: (§1) Fluorescence and ECL spectra were recorded using a charge-coupled device (CCD) camera and spectrometer (1 mm entrance slit) interfaced to a Dell System 200 personal computer (Austin, Tex.) as previously described. The same procedures (spectral calibration etc.) were followed except that different pulse sequences were used and the CCD detector was maintained at −110° C. for the TPrA/THCOOH and TPrA/DPAS experiments and −100° C. for the S2O8^2−/DPAS experiments. Excitation for the fluorescence spectra was achieved by holding a longwave (366 nm) UV lamp (UVP, Inc., San Gabriel, Calif.; model UVGL-25; sold by Fisher Scientific, Pittsburgh, Pa.) next to the cell and at right angles to the entrance slit of the spectrometer.
The DPAS/TPrA ECL spectrum and emission vs. potential scans utilized a 6×9 mm Pt gauze flag (52 mesh gauze; Aldrich) working electrode, an AgQRE and a round (9 mm diameter, 0.5 mm thick) Au foil counter electrode. The 2-THCOOH ECL spectrum also utilized this arrangement. The gauze working electrode was cleaned prior to each experiment by immersion in concentrated nitric acid followed by rinsing in distilled water and heating in a bunsen burner flame.
The DPAS/S2O8^2− ECL spectrum and emission vs. potential scan utilized a 2.0 mm diameter Pt disk working electrode sealed in glass in combination with a Pt wire counter electrode and AgQRE.

A short description of series [2]: Fluorescence spectra (CCD camera, 366 nm UV excitation). It is filed as physicochemical. The settings on record: for fluorescence maximum: pH 8.5 sodium phosphate buffer. As to the method:
as §1

The nature of series [3]: Maximum solubility of aqueous DPAS in sodium phosphate buffer. It is filed as physicochemical. The settings on record: 0.15 M sodium phosphate buffer (pH 7.5). The text has this: The maximum solubility of aqueous DPAS in 0.15 M sodium phosphate buffer (pH 7.5) is approximately 1×10^−5 M. At this low concentration, no anodic current can be observed for DPAS above the background oxidation of water as shown in FIG. 1. However, if 1×10^−5 M DPAS is oxidized in the presence of 0.15 M TPrA, an emission that coincides with an oxidation wave occurs that is superimposed on the TPrA oxidation and background oxidation of water as shown in FIGS. 2a-2b. The fact that an oxidation current is observed for 1×10^−5 M DPAS only in the presence of TPrA implicates a catalytic current enhancement due to the regeneration of DPAS via reduction of DPAS^+ by TPrA or an intermediate. For this catalysis, the cyclic sequence of reactions is analogous to equation schemes (5), (6a), (7), (8) or (10) and (11), and (9) above where Ru(bpy)3^3+/2+/+ is replaced by DPAS^+/0/− respectively, XY^z is TPrA, X^x is Pr2NCH.Et and Y^y is H^+. Despite the low DPAS concentration, 1×10^−5 M, this emission is visibly blue when viewed in a dark room and no emission is observed in the absence of either TPrA or DPAS.

Details of series [4]: peak emission: unit not given here. The settings on record: cited from earlier work; for fluorescence efficiency φF: aqueous media.
The nature of series [5]: Cyclic voltammetry / standard potentials. It is filed as physicochemical. Here is the method: Cyclic voltammetry without photon detection was obtained by using either a BAS 100A Electrochemical Analyzer (Bioanalytical Systems, West Lafayette, Ind.) or a Princeton Applied Research (PAR) model 173/175 potentiostat/universal programmer (Princeton, N.J.) and Omnigraphic 20000 X-Y recorder (Bausch and Lomb-Houston Instrument Division, Austin, Tex.). Cyclic voltammograms with simultaneous photon detection were recorded using the PAR 173/175 in conjunction with a Hamamatsu C1230 photon counter (Bridgewater, N.J.) equipped with a Hamamatsu R928-P photomultiplier tube. The photomultiplier tube was housed in a water jacketed Products For Research, Inc. model TE308TSRF refrigerated chamber maintained at −10° C. Primary cooling of the water jacket to 10° C. was accomplished using an MGW Lauda model RMS6 refrigeration unit (sold by Brinkmann Instruments Co., Westbury, N.Y.). For plots of ECL intensity vs. potential, the output from the photon counter was fed into the Y-axis of the X-Y recorder during potential scans.
Except where noted, all electrochemical and ECL experiments utilized a conventional 3-electrode cell configuration. Pt disk working electrodes were polished on a felt pad (Buehler, Ltd., Lake Bluff, Ill.) before each experiment run with 0.05 μm alumina (Buehler, Ltd.) suspended in water.
For cyclic voltammetry runs without photon detection, the CPZ embodiment utilized a highly-oriented pyrolytic graphite (HOPG; Union Carbide, Cleveland, Ohio) working electrode (6 mm dia. disk with freshly exposed material for each experiment), Pt wire counter electrode and Ag quasi-reference electrode (AgQRE) in a recently describe configuration. See Xu, X.; Bard, A. J. Langmuir, 1994, 10, 2409. Similar runs for all other compounds utilized a 1.5 mm diameter Pt disk working electrode sealed in glass in combination with a Pt wire counter electrode and AgQRE.
Nonaqueous potential referencing to ferrocene was accomplished by adding the standard directly to the solutions. […]

For series [6] the following is noted: non-aqueous ion annihilation scheme; cited from earlier work.

On to `O=C(O)c1cccc2c1Sc1ccccc1S2` [1-THCOOH, 1-thianthrenecarboxylic acid], for which the ECL maximum in series [1] (0.15 M TPrA) is 570 nm. In series [2] (0.15 M TPrA), this compound showed a fluorescence maximum of 505 nm.

As usually defined, the solubility is how much of the substance goes into solution per volume. `O=S(=O)([O-])c1ccc2c(-c3ccccc3)c3ccccc3c(-c3ccccc3)c2c1.[Na+]` [DPAS, sodium 9,10-diphenylanthracene-2-sulfonate]: the solubility in series [3] is ~10 µM. Besides, in series [4], the “fluorescence efficiency φF” value is recorded as 0.87. Also, the peak emission in series [4] (fluorescence) was 428. Further, the “E° of DPAS+/DPAS” value in series [5] (oxidation) is given as “≈ +1.3 V vs SCE”. The “E° of DPAS/DPAS−” value in series [5] (reduction) is given as “≈ −1.9 V vs SCE”. Also, the “ECL peak intensity wavelength” value in series [1] (1.1 mM DPAS, 25 mM (NH4)2S2O8, MeCN-water 1:1, reduction at −2.2 V vs SCE) is recorded as 430 nm; in series [1] (1×10^−5 M DPAS, 0.15 M TPrA, pH 7.5 sodium phosphate buffer, oxidation), 430 nm. In addition, in series [1] (emission spectra of FIG. 19), the wavelength centered emission is 430. In addition, in series [2], the “singlet excited state energy Es” value is recorded as 2.9 eV. In addition, the “fluorescence peak intensity wavelength” value in series [2] (1.1 mM DPAS, 25 mM (NH4)2S2O8, MeCN-water 1:1) is given as 430 nm; in series [2] (1×10^−5 M DPAS, 0.15 M TPrA, pH 7.5 sodium phosphate buffer), 430 nm.

As to `c1ccc2c(c1)Sc1ccccc1S2` [thianthrene, reference compound], in series [4] (in MeCN), the “emission maximum of fluorescence” value is recorded as 434 nm. In addition, in series [6], the “ECL peak intensity wavelength” value is on record as 434 nm.

In the case of `O=C(O)c1ccc2c(c1)Sc1ccccc1S2` [2-THCOOH, 2-thianthrenecarboxylic acid], in series [5] (aqueous solution, pH 8.5 sodium phosphate buffer, Pt electrode, vs SCE), the oxidation potential result is on record as “~+1.0 V”. Further, the ECL maximum in series [1] (0.15 M TPrA) is 570 nm. The fluorescence maximum in series [2] (0.15 M TPrA) was 480 nm.

Take `[Ru+2].c1ccc(-c2ccccn2)nc1.c1ccc(-c2ccccn2)nc1.c1ccc(-c2ccccn2)nc1` [Ru(bpy)3^2+, tris (2,2-bipyridine)ruthenium(II), reference compound]: the “fluorescence efficiency φF” value in series [4] is on record as “about 0.05”.
